Values belong to the molecule of their own block, whether it stands above or below them. Activity calls are given as the source filed them. No cut-off for these calls is given here.
Tests used:
SK-MEL-2 [1] = test: Cytotoxicity against human SK-MEL-2 cells expressing NRAS mutant assessed as cell growth inhibition incubated for 48 hrs by MTT assay; format: functional, cell-based; conditions: SK-MEL-2, 48 h
[2] = Binding affinity to 5'-FAM-labeled to NRAS RNA G-quadruplex 5'-r(UGUGGGAGGGGCGGGUCUGGG)-3' (unknown origin) assessed as dissociation constant by fluorescence quenching assay
SK-MEL-2 [3] = test: Antitumor activity against human SK-MEL-2 cells xenografted in BALB/c nude mouse assessed as T/C ratio at 10 mg/kg/day, ip administered for 30 days relative to control; format: functional; conditions: time 30 day
SK-MEL-2 [4] = test: Antitumor activity against human SK-MEL-2 cells xenografted in BALB/c nude mouse assessed as reduction in tumor weight at 10 mg/kg/day, ip administered for 30 days by electronic caliper method; format: functional, organism-based; conditions: time 30.0 day
SK-MEL-2 [5] = test: Antitumor activity against human SK-MEL-2 cells xenografted in BALB/c nude mouse assessed as tumor growth inhibition at 10 mg/kg/day, ip by electronic caliper method; format: functional, organism-based; conditions: time 30.0 day, TDE = time-dependent effect
SK-MEL-2 [6] = test: Antitumor activity against human SK-MEL-2 cells xenografted in BALB/c nude mouse assessed as tumor growth inhibition at 10 mg/kg/day, ip administered for 30 days relative to control; format: functional; conditions: SK-MEL-2, 720 h, time 30 day, read-out: TGI
SK-MEL-2 [7] = test: Effect on NRAS protein translation in human SK-MEL-2 cells at 1/2 times IC50 incubated for 24 hrs by Western blot analysis; format: functional, cell-based
SK-MEL-2 [8] = test: Upregulation of NRAS mRNA level in human SK-MEL-2 cells at 1/2 times IC50 incubated for 24 hrs by RT-qPCR analysis; format: functional, cell-based
SK-MEL-2 [9] = test: Cytotoxicity against human SK-MEL-2 cells assessed as cell growth inhibition incubated for 24 hrs by MTT assay; format: functional, cell-based; conditions: SK-MEL-2, 24 h

Kd [2]: 1850 nM
Compound: CCCCCNc1cc[n+](CCCCCCCCCC[n+]2ccc(NCCCCC)cc2)cc1
IC50 (SK-MEL-2 [1]): 3000 nM

Kd [2]: 290 nM
Compound: CCCCCCNc1cc[n+](CCCCCCCCCC[n+]2ccc(NCCCCCC)cc2)cc1
IC50 (SK-MEL-2 [1]): 910 nM

Compound: CN(C)/N=N/c1[nH]cnc1C(N)=O [DACARBAZINE]
T/C (SK-MEL-2 [3]): 28.9% | Activity (SK-MEL-2 [4]): Active | Activity (SK-MEL-2 [5]): Tde | inhibition in vivo at 10 mg/kg/day (SK-MEL-2 [6]): 57.7%

Compound: CN(C)c1ccc(C(=C2C=CC(=[N+](C)C)C=C2)c2ccc(N(C)C)cc2)cc1 [GENTIAN VIOLET]
Activity (SK-MEL-2 [7]): inactive | IC50 (SK-MEL-2 [1]): 1360 nM | Activity (SK-MEL-2 [8]): Active | IC50 (SK-MEL-2 [9]): 2890 nM

From ChEMBL document CHEMBL5380835, “Discovery of Clinically Used Octenidine as NRAS Repressor That Effectively Inhibits NRAS-Mutant Melanoma” (J Med Chem, 2023)
